The record followed here is PubChem BioAssay AID624444 (Broad Institute, 2012).

Calls of active or inactive are those of the source.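 The calls were made as follows: active = fitted curve reaches 35% signal loss at a dose no higher than twice the top tested dose; inconclusive = flat fit with 30 to 70% loss, or poor fit; inactive = the rest.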

One assay has as its system 26S proteasome chymotrypsin-like activity (human). The assay can be described thus: cellular 26S proteasome inhibition – U2OS cells, luminescence, dry powder, mechanism study for HSF1 activator project, dose response (AID 624444). Conditions: Proteasome-Glo chymotrypsin luminescence.
For the compound `Cc1ccccc1CSc1nnc(N)s1`, the AC35 is 26 µM. Turning to `O=C(Nc1nc(SCc2ccccc2)ns1)C1CCC1`, the AC35 was 35.4 µM.

Still in this assay, the particulars now being: Proteasome-Glo chymotrypsin luminescence, at 38 µM (top of the series).
Regarding `Nc1nc(SCc2ccc(Cl)cc2Cl)ns1`, the activity change, negative = inhibition was 41.7% (inactive). With `Cc1ccccc1CSc1n[nH]c(N)n1`, the activity change, negative = inhibition was 19.2% (inactive).

With `Cc1cccc(CSc2nsc(N)n2)c1`, the activity change, negative = inhibition is 3.69% (inactive).

Take `Nc1nc(SCc2ccccc2Cl)ns1`: the activity change, negative = inhibition was -9.05% (inactive). Consider `Nc1nc(S(=O)(=O)Cc2ccccc2)ns1`, for which the activity change, negative = inhibition is -9% (inactive). Same read-out and setting: the figure for `Nc1nc(SCc2ccc(F)cc2)ns1` is -32% (inactive); for `O=C(Nc1ccccc1)Nc1nc(SCc2ccccc2)ns1` it is -37.2% (inactive); for `Cc1ccccc1CSc1nsc(N)n1` it is -3.56% (inactive). Same read-out and setting: the figure for `Nc1nc(SCc2ccccc2)ns1` is -11% (inactive). On the same count and under the same terms, in the case of `O=C(Nc1nc(SCc2ccccc2)ns1)C1CC=CCC1` (configuration not stated) it was -29.4% (inactive).
